In patent US8138189B2, “Substituted benzene compounds as modulators of the glucocorticoid receptor” (Hoffman-La Roche Inc., priority 2009, dated 2012):

target: T1, full length human recombinant glucocorticoid receptor (Homo sapiens, UniProt P04150); assay: Glucocorticoid Receptor Binding Assay (fluorescence polarization competitor assay, Fluormone GS Far Red tracer)
T1 construct: partially purified full length human recombinant glucocorticoid receptor; purchased Panvera/Invitrogen PV4302
T1 sequence (P04150 1-777): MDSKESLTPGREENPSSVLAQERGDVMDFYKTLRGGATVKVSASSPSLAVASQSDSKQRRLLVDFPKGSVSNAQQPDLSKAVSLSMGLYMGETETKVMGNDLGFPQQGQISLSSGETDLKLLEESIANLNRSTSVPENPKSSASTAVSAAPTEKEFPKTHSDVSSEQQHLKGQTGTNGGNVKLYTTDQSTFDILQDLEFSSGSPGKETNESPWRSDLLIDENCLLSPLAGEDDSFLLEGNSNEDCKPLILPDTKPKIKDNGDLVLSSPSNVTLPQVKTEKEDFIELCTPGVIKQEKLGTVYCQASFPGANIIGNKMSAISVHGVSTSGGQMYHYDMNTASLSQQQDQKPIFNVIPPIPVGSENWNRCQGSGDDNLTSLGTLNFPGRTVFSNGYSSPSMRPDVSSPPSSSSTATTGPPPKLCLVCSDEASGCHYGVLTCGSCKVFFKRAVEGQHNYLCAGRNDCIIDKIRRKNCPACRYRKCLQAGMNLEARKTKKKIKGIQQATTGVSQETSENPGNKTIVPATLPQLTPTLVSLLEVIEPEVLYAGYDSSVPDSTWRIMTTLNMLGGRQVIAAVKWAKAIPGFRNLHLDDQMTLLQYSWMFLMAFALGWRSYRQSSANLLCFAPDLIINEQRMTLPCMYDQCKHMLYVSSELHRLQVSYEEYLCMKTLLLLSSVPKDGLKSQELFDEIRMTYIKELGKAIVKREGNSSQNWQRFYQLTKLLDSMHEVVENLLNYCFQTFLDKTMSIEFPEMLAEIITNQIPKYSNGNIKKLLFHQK
Procedure: Glucocorticoid Receptor Binding Assay
The ability of the substances to bind to the glucocorticoid receptor was determined with the help of a commercial Glucocorticoid Receptor Competitor Assay far red kit provided by Panvera/Invitrogen (PV4302). This kit is used as provided by the supplier. It contains some partially purified full length human recombinant glucocorticoid receptor, a coactivator related GR stabilizing peptide, a tight-binding fluorescent GR ligand Fluormone™ GS Far Red as labeled tracer and a screening buffer. All reagents are prepared and the assay is run according to the recommendations of the kit manufacturer.
Briefly, the GR stabilizing peptide and the human recombinant glucocorticoid receptor are both diluted with the screening buffer (pH 7.4) and are gently mixed (no vortexing) just before the assay and kept on ice until use. The fluorescent-labeled ligand is also diluted with the screening buffer just before the assay and kept on ice until use. The substances to test are pre-diluted in pure DMSO then some water is added to get an intermediate 4.2% DMSO stock solution. Ten microliter of the intermediate stock solution is gently mixed with 5 μl of diluted fluorescent-labeled ligand and 5 μl of diluted human recombinant glucocorticoid receptor in a 384-well plate (low volume, ultraclear, glass plate from Greiner ref 788896). The plate is centrifuged, sealed and incubated for 3 hours at 22° C. in the dark. The polarized fluorescence is measured with a Zeiss-HTS reader or any equivalent equipment (610-660 nm).
All compounds were tested to determine IC50 in a serial dilution experiment. The concentration at which 50% inhibition of the fluorescent GR ligand Fluormone™ GS Far Red is obtained (the IC50) is determined after fitting with a sigmoidal dose-response model of a plot of the logarithm of the concentration versus percent inhibition measured for the different concentrations. Ki's were calculated from IC50 based on Cheng-Prusoff equation (Cheng, Y, Prusoff, W H (1973) Biochem Pharmacol 22, 3099-3108): Ki=IC50/[1+D/Kd] wherein D is the concentration of the fluorescent ligand and Kd is the binding constant for the fluorescent ligand binding to the receptor under the conditions used in the competition experiment.

SMILES | Ki
COC(=O)c1ccc(Oc2ccc([C@@H](C)[C@@](O)(c3ccc(=O)n(C)c3)C(F)(F)F)c(Cl)c2)cc1 (relative stereo) [Example 151, 4-{3-Chloro-4-[3,3,3-trifluoro-2-hydroxy-1-methyl-2(1-methyl-6-oxo-1,6-dihydro-pyridin-3-yl)-propyl]-phenoxy}-benzoic acid methyl ester] | 2.4 nM
C[C@H](c1ccc(Oc2ccc(C(=O)O)cc2Cl)cc1Cl)[C@@](O)(c1ccc(=O)n(C)c1)C(F)(F)F (relative stereo) [Example 157, 3-Chloro-4-{3-chloro-4-[3,3,3-trifluoro-2-hydroxy-1-methyl-2(1-methyl-6-oxo-1,6-dihydro-pyridin-3-yl)-propyl]-phenoxy}-benzoic acid] | 0.7 nM
CCOC(=O)COc1ccc(Oc2ccc([C@@H](C)[C@@](O)(c3ccc(=O)n(C)c3)C(F)(F)F)c(Cl)c2)cc1 (relative stereo) [Example 159, (4-{3-Chloro-4-[3,3,3-trifluoro-2-hydroxy-1-methyl-2-(1-methyl-6-oxo-1,6-dihydro-pyridin-3-yl)-propyl]-phenoxy}-phenoxy)-acetic acid ethyl ester] | 2 nM
C[C@H](c1ccc(-c2ccc(F)c(C(=O)O)c2)cc1Cl)[C@@](O)(c1ccc(=O)n(C)c1)C(F)(F)F (relative stereo) [Example 165, 3′-Chloro-4-fluoro-4′-[3,3,3-trifluoro-2-hydroxy-1-methyl-2-(1-methyl-6-oxo-1,6-dihydro-pyridin-3-yl)-propyl]-biphenyl-3-carboxylic acid] | 28.3 nM
C[C@@H](c1ccc(-c2ccc(CC(=O)O)cc2)cc1Cl)[C@](O)(c1ccc(=O)n(C)c1)C(F)(F)F (relative stereo) [Example 171, {3′-Chloro-4′-[3,3,3-trifluoro-2-hydroxy-1-methyl-2-(1-methyl-6-oxo-1,6-dihydro-pyridin-3-yl)-propyl]-biphenyl-4-yl}-acetic acid] | 79.3 nM
C[C@@H](c1ccc(Oc2ccc(C(=O)O)cc2)cc1Cl)[C@](O)(c1ccc(=O)[nH]c1)C(F)(F)F (relative stereo) [Example 175, 4-{3-Chloro-4-[3,3,3-trifluoro-2-hydroxy-1-methyl-2-(6-oxo-1,6-dihydro-pyridin-3-yl)-propyl]-phenoxy}-benzoic acid] | 76.4 nM
C[C@@H](c1ccc(-c2ccc(C(=O)O)c(Cl)c2)cc1Cl)[C@](O)(c1ccc(=O)[nH]c1)C(F)(F)F (relative stereo) [Example 179, 3,3′-Dichloro-4′-[3,3,3-trifluoro-2-hydroxy-1-methyl-2-(6-oxo-1,6-dihydro-pyridin-3-yl)-propyl]-biphenyl-4-carboxylic acid] | 505 nM
C[C@@H](c1ccc(-c2ccc(CC(=O)O)cc2)cc1Cl)[C@](O)(c1ccc(=O)[nH]c1)C(F)(F)F (relative stereo) [Example 182, {3′-Chloro-4′-[3,3,3-trifluoro-2-hydroxy-1-methyl-2-(6-oxo-1,6-dihydro-pyridin-3-yl)-propyl]-biphenyl-4-yl}-acetic acid] | 412 nM
CCn1cc([C@@](O)([C@@H](C)c2ccc(-c3ccc(C(=O)O)c(F)c3)cc2Cl)C(F)(F)F)ccc1=O (relative stereo) [Example 186, 3′-Chloro-4′-[2-(1-ethyl-6-oxo-1,6-dihydro-pyridin-3-yl)-3,3,3-trifluoro-2-hydroxy-1-methyl-propyl]-3-fluoro-biphenyl-4-carboxylic acid] | 68.2 nM
COC(=O)c1cnc(Oc2ccc([C@H](C)[C@](O)(c3cc(C)c(=O)n(C)c3)C(F)(F)F)c(Cl)c2)cc1C(F)(F)F (relative stereo) [Example 205, 6-{3-Chloro-4-[2-(1,5-dimethyl-6-oxo-1,6-dihydro-pyridin-3-yl)-3,3,3-trifluoro-2-hydroxy-1-methyl-propyl]-phenoxy}-4-trifluoromethyl-nicotinic acid methyl ester] | 1.3 nM
Cc1cc([C@@](O)([C@@H](C)c2ccc(Oc3ccc(C(=O)O)c(Cl)c3)cc2Cl)C(F)(F)F)cn(C)c1=O (relative stereo) [Example 208, 2-Chloro-4-{3-chloro-4-[2-(1,5-dimethyl-6-oxo-1,6-dihydro-pyridin-3-yl)-3,3,3-trifluoro-2-hydroxy-1-methyl-propyl]-phenoxy}-benzoic acid] | 0.4 nM
Cc1cc([C@@](O)([C@@H](C)c2ccc(Oc3ccc(F)c(C(=O)O)c3)cc2Cl)C(F)(F)F)cn(C)c1=O (relative stereo) [Example 213, 5-{3-Chloro-4-[2-(1,5-dimethyl-6-oxo-1,6-dihydro-pyridin-3-yl)-3,3,3-trifluoro-2-hydroxy-1-methyl-propyl]-phenoxy}-2-fluoro-benzoic acid] | 0.4 nM

The next lines start with the values.

Ki | SMILES
0.9 nM | C[C@H](c1ccc(Oc2ccc(C(=O)O)cc2F)cc1Cl)[C@@](O)(c1ccc(=O)n(C)c1)C(F)(F)F (relative stereo) [Example 156, 4-{3-Chloro-4-[3,3,3-trifluoro-2-hydroxy-1-methyl-2-(1-methyl-6-oxo-1,6-dihydro-pyridin-3-yl)-propyl]-phenoxy}-3-fluoro-benzoic acid]
23.8 nM | COC(=O)c1cnc(Oc2ccc([C@@H](C)[C@@](O)(c3ccc(=O)n(C)c3)C(F)(F)F)c(Cl)c2)cc1C(F)(F)F (relative stereo) [Example 163, 6-{3-Chloro-4-[3,3,3-trifluoro-2-hydroxy-1-methyl-2-(1-methyl-6-oxo-1,6-dihydro-pyridin-3-yl)-propyl]-phenoxy}-4-trifluoromethyl-nicotinic acid methyl ester]
7.5 nM | CCOC(=O)c1cc(-c2ccc([C@H](C)[C@](O)(c3ccc(=O)n(CC)c3)C(F)(F)F)c(Cl)c2)ccc1F (relative stereo) [Example 183, 3′-Chloro-4′-[2-(1-ethyl-6-oxo-1,6-dihydro-pyridin-3-yl)-3,3,3-trifluoro-2-hydroxy-1-methyl-propyl]-4-fluoro-biphenyl-3-carboxylic acid ethyl ester]
5.5 nM | COC(=O)c1ccc(Oc2ccc(Cl)c([C@H](C)[C@](O)(c3ccc(=O)n(C)c3)C(F)(F)F)c2)cc1Cl (relative stereo) [Example 189, 2-Chloro-4-{4-chloro-3-[3,3,3-trifluoro-2-hydroxy-1-methyl-2-(1-methyl-6-oxo-1,6-dihydro-pyridin-3-yl)-propyl]-phenoxy}-benzoic acid methyl ester]
1.8 nM | COC(=O)c1ccc(Oc2ccc([C@@H](C)[C@@](O)(c3ccc(=O)n(C)c3)C(F)(F)F)c(Cl)c2Cl)cc1 (relative stereo) [Example 197, 4-{2,3-Dichloro-4-[3,3,3-trifluoro-2-hydroxy-1-methyl-2-(1-methyl-6-oxo-1,6-dihydro-pyridin-3-yl)-propyl]-phenoxy}-benzoic acid methyl ester]
2 nM | CCOC(=O)c1cc(Oc2ccc([C@H](C)[C@](O)(c3cc(C)c(=O)n(C)c3)C(F)(F)F)c(Cl)c2)ccc1Cl (relative stereo) [Example 210, 2-Chloro-5-{3-chloro-4-[2-(1,5-dimethyl-6-oxo-1,6-dihydro-pyridin-3-yl)-3,3,3-trifluoro-2-hydroxy-1-methyl-propyl]-phenoxy}-benzoic acid ethyl ester]
